From BindingDB's records for doi:10.1021/jm0003440 (Merck Frosst Centre For Therapeutic Research, 2001)

Assay: Inhibitory activity tested against Human Cathepsin K receptor using bone resorption assay

## N#CN1CCC(NC(=O)OCc2ccccc2)C1 (stereo unspecified) [(1-Cyano-pyrrolidin-3-yl)-carbamic acid benzyl ester]
  IC50: 1410 nM
